How the values were obtained:
Test in all cases: concentration in plasma after dosing
[1] = tested on: rat; settings: male, Sprague-Dawley
[2] = tested on: rat; settings: dosed: Bisphenol A, 0.6000000000 mg/kg, iv, male, Sprague-Dawley
[3] = tested on: rat; settings: dosed: Bisphenol A, 0.6000000000 mg/kg, iv, male, Sprague-Dawley; remark: listed apart in the source
[4] = tested on: rat; settings: 8 h; dosed: Dimethenamid; 5.0000000000 mg/kg; oral; male; Sprague-Dawley
[5] = tested on: rat; settings: dosed: Dimethenamid, 1.0000000000 mg/kg, iv, male, Sprague-Dawley
[6] = tested on: rat; settings: dosed: Dimethenamid, 5.0000000000 mg/kg, oral, male, Sprague-Dawley
[7] = tested on: rat; settings: dosed: Dimethenamid, 1.0000000000 mg/kg, iv, male, Sprague-Dawley; remark: listed apart in the source
[8] = tested on: rat; settings: dosed: Dimethenamid, 5.0000000000 mg/kg, oral, male, Sprague-Dawley; remark: listed apart in the source
[9] = tested on: rat; settings: dosed: Etoxazole, 2.0000000000 mg/kg, oral, male, Sprague-Dawley
[10] = tested on: rat; settings: dosed: Etoxazole, 0.4000000000 mg/kg, iv, male, Sprague-Dawley
[11] = tested on: rat; settings: dosed: Etoxazole, 0.4000000000 mg/kg, iv, male, Sprague-Dawley; remark: listed apart in the source
[12] = tested on: rat; settings: dosed: Etoxazole, 2.0000000000 mg/kg, oral, male, Sprague-Dawley; remark: listed apart in the source
[13] = tested on: rat; settings: dosed: Etoxazole, 2.0000000000 mg/kg, oral, male, Sprague-Dawley; remark: listed apart in the source
[14] = tested on: rat; settings: dosed: Etoxazole, 0.4000000000 mg/kg, iv, male, Sprague-Dawley; remark: listed apart in the source
[15] = tested on: rat; settings: dosed: Etoxazole, 2.0000000000 mg/kg, oral, male, Sprague-Dawley; remark: listed apart in the source
[16] = tested on: rat; settings: dosed: Permethrin, 5.0000000000 mg/kg, oral, male, Sprague-Dawley
[17] = tested on: rat; settings: dosed: Permethrin, 5.0000000000 mg/kg, oral, male, Sprague-Dawley; remark: listed apart in the source
[18] = tested on: rat; settings: dosed: Permethrin, 5.0000000000 mg/kg, oral, male, Sprague-Dawley; remark: listed apart in the source
[19] = tested on: rat; settings: dosed: Permethrin, 5.0000000000 mg/kg, oral, male, Sprague-Dawley; remark: listed apart in the source
[20] = tested on: rat; settings: dosed: Permethrin, 1.0000000000 mg/kg, iv, male, Sprague-Dawley
[21] = tested on: rat; settings: dosed: Permethrin, 5.0000000000 mg/kg, oral, male, Sprague-Dawley; remark: listed apart in the source
[22] = tested on: rat; settings: dosed: Permethrin, 1.0000000000 mg/kg, iv, male, Sprague-Dawley; remark: listed apart in the source

CC(C)(c1ccc(O)cc1)c1ccc(O)cc1 [Bisphenol A]
[1], dosed: Bisphenol A, 0.6000000000 mg/kg, iv
Settings | concentration in plasma [ng/mL]
0.5 h | 85.6
1 h | 29.2
5 min | 392
10 min | 302

concentration in plasma [µg/mL]
Settings | 0.5 h | 1 h | 5 min | 10 min
[2] | 0.0605 | 0.0345 | 0.299 | 0.189
[3] | 0.0943 | 0.0307 | 0.31 | 0.151

COCC(C)N(C(=O)CCl)c1c(C)csc1C (stereo unspecified) [Dimethenamid]
Settings | concentration in plasma [µg/mL]
[4] | 0.287

concentration in plasma
Settings | [5] | [6] | [7] | [8]
0.25 h | – | 1800 pg/mL | – | 600 pg/mL
0.5 h | 0.0149 µg/mL | 1400 pg/mL | 0.0209 µg/mL | 500 pg/mL
1 h | 0.0062 µg/mL | 600 pg/mL | 0.0074 µg/mL | –
2 h | 0.0019 µg/mL | 700 pg/mL | 0.0021 µg/mL | 600 pg/mL
4 h | 0.0006 µg/mL | 1000 pg/mL | 0.0008 µg/mL | 600 pg/mL
5 min | 0.0919 µg/mL | – | 0.193 µg/mL | –
8 h | – | 500 pg/mL | – | 200 pg/mL
10 min | 0.0381 µg/mL | – | 0.111 µg/mL | –
24 h | – | 200 pg/mL | – | –
48 h | – | 300 pg/mL | – | –
72 h | – | 300 pg/mL | – | –

[1], dosed: Dimethenamid
Settings | concentration in plasma [ng/mL]
0.25 h, 5.0000000000 mg/kg, oral | 5.3
0.5 h, 1.0000000000 mg/kg, iv | 19.3
0.5 h, 5.0000000000 mg/kg, oral | 2
1 h, 1.0000000000 mg/kg, iv | 7
1 h, 5.0000000000 mg/kg, oral | 1.3
2 h, 1.0000000000 mg/kg, iv | 1.4
2 h, 5.0000000000 mg/kg, oral | 1.9
4 h, 1.0000000000 mg/kg, iv | 0.8
4 h, 5.0000000000 mg/kg, oral | 1.2
5 min, 1.0000000000 mg/kg, iv | 115
8 h, 1.0000000000 mg/kg, iv | 0.3
8 h, 5.0000000000 mg/kg, oral | 0.5
10 min, 1.0000000000 mg/kg, iv | 60.7
12 h, 5.0000000000 mg/kg, oral | 0.3
24 h, 5.0000000000 mg/kg, oral | 0.3
48 h, 5.0000000000 mg/kg, oral | 0.3
72 h, 5.0000000000 mg/kg, oral | 0.5

CCOc1cc(C(C)(C)C)ccc1C1COC(c2c(F)cccc2F)=N1 (stereo unspecified) [Etoxazole]
concentration in plasma
Settings | [9] | [10] | [11] | [12] | [13] | [14] | [15]
0.25 h | 15.8 ng/mL | – | – | 15.1 ng/mL | 0.00912 µg/mL | – | 0.0146 µg/mL
0.5 h | 18.5 ng/mL | 0.06 µg/mL | 20.5 ng/mL | 22.4 ng/mL | 0.0168 µg/mL | 0.0436 µg/mL | 0.023 µg/mL
1 h | 23.8 ng/mL | 0.0189 µg/mL | 7.3 ng/mL | 29.7 ng/mL | 0.0253 µg/mL | 0.0157 µg/mL | 0.0337 µg/mL
2 h | 7.62 ng/mL | 0.0047 µg/mL | 2.78 ng/mL | 31.5 ng/mL | 0.031 µg/mL | 0.00419 µg/mL | 0.0243 µg/mL
4 h | 2.16 ng/mL | 0.00086 µg/mL | 1.69 ng/mL | 13.6 ng/mL | 0.00937 µg/mL | 0.00189 µg/mL | 0.0119 µg/mL
5 min | – | 0.142 µg/mL | 78.2 ng/mL | – | – | 0.126 µg/mL | –
8 h | 4.85 ng/mL | 0.00054 µg/mL | 0.69 ng/mL | 5.34 ng/mL | – | 0.00028 µg/mL | 0.0103 µg/mL
10 min | – | 0.0668 µg/mL | 50.2 ng/mL | – | – | 0.0725 µg/mL | –
12 h | 1.6 ng/mL | – | 0.56 ng/mL | 1 ng/mL | – | – | 0.00145 µg/mL
24 h | 0.18 ng/mL | 0.00036 µg/mL | 0.3 ng/mL | 0.46 ng/mL | – | – | 0.00053 µg/mL
48 h | – | – | 0.14 ng/mL | 0.2 ng/mL | – | – | 0.00012 µg/mL
72 h | – | – | – | 0.16 ng/mL | – | – | 0.00013 µg/mL

[1], dosed: Etoxazole
Settings | concentration in plasma [ng/mL]
0.25 h, 2.0000000000 mg/kg, oral | 36
0.5 h, 0.4000000000 mg/kg, iv | 31.1
0.5 h, 2.0000000000 mg/kg, oral | 41.2
1 h, 0.4000000000 mg/kg, iv | 14
1 h, 2.0000000000 mg/kg, oral | 49.5
2 h, 0.4000000000 mg/kg, iv | 3.62
2 h, 2.0000000000 mg/kg, oral | 23.7
4 h, 0.4000000000 mg/kg, iv | 1.53
4 h, 2.0000000000 mg/kg, oral | 8.72
5 min, 0.4000000000 mg/kg, iv | 145
8 h, 0.4000000000 mg/kg, iv | 0.14
8 h, 2.0000000000 mg/kg, oral | 11.7
10 min, 0.4000000000 mg/kg, iv | 86.3
12 h, 2.0000000000 mg/kg, oral | 1.84
24 h, 2.0000000000 mg/kg, oral | 0.61
48 h, 2.0000000000 mg/kg, oral | 0.15
72 h, 2.0000000000 mg/kg, oral | 0.11

CC1(C)C(C=C(Cl)Cl)C1C(=O)OCc1cccc(Oc2ccccc2)c1 (stereo unspecified) [Permethrin]
concentration in plasma
Settings | 0.25 h | 0.5 h | 1 h | 2 h | 4 h | 8 h | 10 min | 12 h
[16] | – | 0.0081 µg/mL | 0.0152 µg/mL | 0.0159 µg/mL | – | – | – | –
[17] | – | 0.037 µg/mL | 0.0542 µg/mL | 0.0622 µg/mL | 0.0485 µg/mL | 0.0123 µg/mL | 0.0101 µg/mL | 0.0015 µg/mL
[18] | 0.0213 µg/mL | 0.0157 µg/mL | 0.0183 µg/mL | 0.0215 µg/mL | 0.0284 µg/mL | 0.0151 µg/mL | – | –
[19] | – | 7.1 ng/mL | 10.5 ng/mL | 14.9 ng/mL | 16 ng/mL | 7.8 ng/mL | – | 3.3 ng/mL
[20] | – | – | 9.5 ng/mL | – | 2.1 ng/mL | – | – | –
[21] | – | 0.0334 µg/mL | 0.0872 µg/mL | 0.0408 µg/mL | 0.0272 µg/mL | – | – | –
[22] | – | – | – | – | – | – | 3 ng/mL | 2.9 ng/mL

concentration in plasma [ng/mL], [1], dosed: Permethrin
Settings | 0.5 h | 1 h | 2 h | 4 h | 8 h | 10 min | 12 h | 48 h
1.0000000000 mg/kg, iv | – | 6.7 | – | – | – | 15.9 | – | –
5.0000000000 mg/kg, oral | 44.4 | 64.2 | 71 | 53.2 | 26.1 | 15 | 8.4 | 5.2

From EPA's CvTdb concentration-time database (doi:10.1093/toxsci/kfy020)
